# Assay results reported in patent publication US12630829B2, “Gene encoding cytochrome P450 and use thereof” (KUMIAI CHEMICAL INDUSTRY CO., LTD., priority 2020, dated 2026).
# Experiments:
# [1] = test system: Arabidopsis thaliana having AK454412 forced expression; experiment: Fenquinotrione sensitivity test on MS solid medium, AK454412 forced expression; assay type: in vivo; settings: 10,000 nM in MS solid medium, 22° C., about 10 days, evaluated subjectively
# Description: First, a binary vector, pMLH7133-AK454412_for At, for transforming Arabidopsis thaliana was produced. With the pET-22b-AK454412 produced in Example 1 used as a template, PCR was performed using a primer set of pMLH-tplb Xba IF (Fd) and pMLH-tplb Sac IF (Rv) to obtain a DNA fragment in which XbaI/SacI recognition sequence and 15 bases of In-Fusion recognition sequence were added to a terminal of full length CDS sequence of the AK454412 gene. The obtained DNA fragment and pMLH7133 vector, having been digested with the restriction enzymes XbaI/SacI, were linked to each other with In-Fusion HD Cloning Kit (Clontech) to produce a binary vector, pMLH7133-AK454412_for At, for transforming Arabidopsis thaliana (FIG. 8). The obtained construct was introduced into Agrobacterium EHA105 strain by an electroporation method. The transformation of Arabidopsis thaliana was performed by a floral dip method using this recombinant Agrobacterium.
# With a sensitivity difference from wild type Arabidopsis thaliana used as an index, it was verified whether or not the created transformant had resistance to fenquinotrione. […] The sensitivity to this drug was evaluated subjectively in accordance with the degree of chlorosis of acting symptom. […]
# [2] = test system: KJ541960 (wheat-derived P450) co-expressed with TaCPR; experiment: In vitro drug metabolism test of KJ541960 protein against fenquinotrione; assay type: in vitro ADME; settings: test method and conditions of Example 1; KJ541960 reaction plot
# Description: It was verified by in vitro metabolism test whether or not a novel wheat-derived P450 of AK454412 is involved in herbicide metabolism. As a compound having high safety against wheat, fenquinotrione was used. […] A solution after completing the enzymatic reaction was centrifuged at 15,000 rpm for 1 minute, and the obtained supernatant was filtered through a 0.45 μm filter and then tested by LC/MS. LC/MS conditions were as follows:
# Therefore, synthesis of an artificial gene of the KJ541960 gene was requested of Eurofins Genomics K.K. Here, NdeI and EcoRI sites were respectively added to the 5′ and 3′ terminals of the CDS sequence of the gene. A DNA fragment of the KJ541960 gene was cleaved through NdeI/EcoRI treatment from the synthesized pEX-A2J2-KJ541960 plasmid, and was linked to pET-22b(+) vector, similarly having been subjected to NdeI/EcoRI treatment, with Ligation-Convenience Kit, and thus pET-22b-KJ541960 was produced (FIG. 13). […]
# It is noted that the KJ541960 gene, synthesized as the artificial gene, was set to encode an amino acid sequence, in which a membrane anchoring region of the 35 N-terminal amino acid residues was removed, and the 6β sequence (MAKKTSS) was added as the same conditions as in the AK454412 gene. […] Besides, the intensity of the peak of the detected demethylated product was substantially the same in both the reaction plots. […]
smiles,measurement,setting,value
COc1ccc(-n2c(=O)c(C(=O)C3C(=O)CCCC3=O)nc3c(Cl)cccc32)cc1 [fenquinotrione],chlorosis symptom,[1],not observed
same,metabolism of fenquinotrione (production of demethylated product as index),[2],"a parent peak of fenquinotrione was reduced, and a peak of the demethylated product appeared"
